Starred links: 1 amine or outer side, 2 acyl side, 3 side chain; linkers in the order of their positions; H or OH if unused. Non-standard residues stand in square brackets, D forms with d. Residues, ends and D or L forms follow the SMILES beside them. *: point of attachment. X1 = NC(=O)C[C@@H](C(=O)[*:2])N(C[C@@H](N)Cc1ccc(O)cc1)[*:1]; Propanoyl(3-indol-3-yl) = O=C(CCc1c[nH]c2ccccc12)*; X3 = O=C(CNC(=S)[C@H](Cc1ccccc1)N[*:1])[*:2]; Diphenylacetyl = O=C(C(c1ccccc1)c1ccccc1)*; Arg(Me) = CNC(=N)NCCC[C@H](N)C(=O)O; Tryptamide = c1ccc2c(CCN*)c[nH]c2c1; 4Pal = N[C@@H](Cc1ccncc1)C(=O)O; X2 = O=C(Cc1c[nH]c2ccccc12)*; X7 = O=C(c1c[nH]c2ccccc12)*; CO = O=C([*:1])[*:2]; azaGly = NNC(=O)O
Experiments:
hOT7T175 [1] = molecular target: T1, hOT7T175 (Homo sapiens, UniProt Q969F8); assay: Intracellular Ca ion level-increasing activity using FLIPR (180 seconds; specific activity to Metastin (1-54)); format: cell-based; details: hOT7T175/CHO, change in intracellular calcium ion level for 180 seconds, Tables 21-23
T1 construct: expressed in transfected cells

hOT7T175 [2] = molecular target: T2, hOT7T175 (Homo sapiens, UniProt Q969F8, L364H); format: cell-based; details: hOT7T175/CHO, FLIPR, evaluation for 40 seconds after initiation of the reaction
T2 construct: expressed in transfected cells
T2 sequence (Q969F8 whole entry L364H): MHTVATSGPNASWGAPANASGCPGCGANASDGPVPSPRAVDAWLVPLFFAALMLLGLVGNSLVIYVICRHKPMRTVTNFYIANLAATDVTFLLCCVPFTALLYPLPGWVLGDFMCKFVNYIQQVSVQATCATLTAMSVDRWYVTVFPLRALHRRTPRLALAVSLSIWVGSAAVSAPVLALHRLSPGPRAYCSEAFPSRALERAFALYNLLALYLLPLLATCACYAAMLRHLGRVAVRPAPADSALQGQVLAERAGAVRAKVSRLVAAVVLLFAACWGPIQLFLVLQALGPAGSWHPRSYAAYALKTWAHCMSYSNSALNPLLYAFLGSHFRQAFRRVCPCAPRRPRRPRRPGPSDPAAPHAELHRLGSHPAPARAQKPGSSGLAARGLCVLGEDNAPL
Description: The intracellular Ca ion level-increasing activity was measured using FLIPR as in TEST EXAMPLE 2.

T1 sequence (Q969F8 whole entry L364H): as above

Compound	intracellular Ca ion level-increasing activity [specific activity to Metastin (1-54)] (hOT7T175 [1])	Specific Act. (EC50/MS10 EC50) (hOT7T175 [2])
1-Azetidinecarbonyl-Phe-AzaGly-Leu-Arg(Me)-Trp-NH2 [Compound No. 468]	1	5.2
2-(Indol-3-yl)ethylcarbamoyl-Phe-AzaGly-Leu-Arg(Me)-Trp-NH2 [Compound No. 369]	2	4.8
2-Aminoethyl-Gly-D-Tyr-Asn-Trp-Asn-Ser-Phe-Gly-Leu-Arg(Me)-Phe-NH2 [Compound No. 375]	2	5.2
3-Furancarbonyl-Phe-AzaGly-Leu-Arg(Me)-Trp-NH2 [Compound No. 454]	6	2.5
3-Phenylpropionyl-Ala-Ser-Phe-AzaGly-Leu-Arg(Me)-Trp-NH2 [Compound No. 500]	1	3.2
3-Phenylpropionyl-Asn-Ile-Phe-AzaGly-Leu-Arg(Me)-Trp-NH2 [Compound No. 506]	1	1.3
3-Phenylpropionyl-Asn-Ser-Trp-AzaGly-Leu-Arg(Me)-Trp-NH2 [Compound No. 507]	5	1.7
4-Aminobenzoyl-Phe-AzaGly-Leu-Arg(Me)-Trp-NH2 [Compound No. 472]	3	3.4
4-Aminomethylbenzoyl-Phe-AzaGly-Leu-Arg(Me)-Trp-NH2 [Compound No. 473]	3	4.2
4-Imidazolecarbonyl-Phe-AzaGly-Leu-Arg(Me)-Trp-NH2 [Compound No. 459]	2	7.3
6-(Trifluoromethyl)nicotinoyl-Phe-AzaGly-Leu-Arg(Me)-Trp-NH2 [Compound No. 464]	1	10.5
6-Chloronicotinoyl-Phe-AzaGly-Leu-Arg(Me)-Trp-NH2 [Compound No. 463]	2	4.6
6-Methylnicotinoyl-Phe-AzaGly-Leu-Arg(Me)-Trp-NH2 [Compound No. 445]	5	4.2
CNC(=N)NCCC[C@H](NC(=O)[C@H](CC(C)C)NC(=O)NNC(=O)[C@H](Cc1ccccc1)NC(=O)[C@H](CO)NC(=O)[C@H](CC(N)=O)NC(=O)CCc1c[nH]c2ccccc12)C(=O)N[C@@H](Cc1ccccc1)C(N)=O [Compound No. 260, 3-(3-Indolyl)propionyl-Asn-Ser-Phe-AzaGly-Leu-Arg(Me)-Phe-NH2] ({Propanoyl(3-indol-3-yl)}-NSF[azaGly]L[Arg(Me)]F-NH2)	5	4.3
CNC(=N)NCCC[C@H](NC(=O)[C@H](CC(C)C)NC(=O)NNC(=O)[C@H](Cc1ccccc1)NC(=O)[C@H](CO)NC(=O)[C@H](CC(N)=O)NC(=O)c1c[nH]c2ccccc12)C(=O)N[C@@H](Cc1ccccc1)C(N)=O [Compound No. 265, Indole-3-carbonyl-Asn-Ser-Phe-AzaGly-Leu-Arg(Me)-Phe-NH2] (X7-NSF[azaGly]L[Arg(Me)]F-NH2)	3	4.4
CNC(=N)NCCC[C@H](NC(=O)[C@H](CC(C)C)NC(=O)NNC(=O)[C@H](Cc1ccccc1)NC(=O)[C@H](CO)NC(=O)[C@H](CC(N)=O)NC(=O)Cc1c[nH]c2ccccc12)C(=O)N[C@@H](Cc1ccccc1)C(N)=O [Compound No. 266, Indol-3-acetyl-Asn-Ser-Phe-AzaGly-Leu-Arg(Me)-Phe-NH2] (X2-NSF[azaGly]L[Arg(Me)]F-NH2)	2	5.4
CNC(=N)NCCC[C@H](NC(=O)[C@H](CC(C)C)NC(=O)NNC(=O)[C@H](Cc1ccccc1)NC(=O)[C@H](CO)NC(=O)[C@H](CC(N)=O)NC(=O)C(c1ccccc1)c1ccccc1)C(=O)N[C@@H](Cc1ccccc1)C(N)=O [Compound No. 268, Diphenylacetyl-Asn-Ser-Phe-AzaGly-Leu-Arg(Me)-Phe-NH2] (Diphenylacetyl-NSF[azaGly]L[Arg(Me)]F-NH2)	1	4.5
CNC(=N)NCCC[C@H](NC(=O)[C@H](CC(C)C)NC(=O)NNC(=O)[C@H](Cc1ccccc1)NC(=O)[C@H](CO)NC(=O)[C@H](CC(N)=O)NC(=O)NCCc1c[nH]c2ccccc12)C(=O)N[C@@H](Cc1ccccc1)C(N)=O [Compound No. 279, 2-(indol-3-yl)ethylcarbamoyl-Asn-Ser-Phe-AzaGly-Leu-Arg(Me)-Phe-NH2] ({Tryptamide-CO}-NSF[azaGly]L[Arg(Me)]F-NH2)	5	6.4
CC(C)C[C@H](NC(=O)CNC(=O)[C@H](Cc1ccccc1)NC(=O)[C@H](CO)NC(=O)[C@H](CC(N)=O)NC(=O)[C@H](Cc1c[nH]c2ccccc12)NC(=O)[C@H](CC(N)=O)NC[C@@H](N)Cc1ccc(O)cc1)C(=O)N[C@@H](CCCNC(=N)N)C(=O)N[C@@H](Cc1ccccc1)C(N)=O [Compound No. 294] (H-[X1]WNSFGLRF-NH2)	10	0.7
CNC(=N)NCCC[C@H](NC(=O)[C@H](CC(C)C)NC(=O)CNC(=S)[C@H](Cc1ccccc1)NC(=O)[C@H](CO)NC(=O)[C@H](CC(N)=O)NC(=O)[C@H](Cc1c[nH]c2ccccc12)NC(=O)[C@H](CC(N)=O)NC(=O)[C@H](N)Cc1ccc(O)cc1)C(=O)N[C@@H](Cc1ccccc1)C(N)=O [Compound No. 296, D-Tyr-Asn-Trp-Asn-Ser-PheΨ(CSNH)Gly-Leu-Arg(Me)-Phe-NH2] (H-[dY]NWNS[X3]L[Arg(Me)]F-NH2)	3	5.2
CNC(=N)NCCC[C@H](NC(=O)[C@H](CC(C)C)NC(=O)NNC(=O)[C@H](Cc1ccccc1)NC(=O)[C@@H](NC(=O)[C@H](CC(N)=O)NC(=O)[C@H](Cc1c[nH]c2ccccc12)NC(=O)[C@H](CC(N)=O)NC(=O)[C@H](N)Cc1ccc(O)cc1)[C@@H](C)O)C(=O)N[C@@H](Cc1ccccc1)C(N)=O [Compound No. 297, D-Tyr-Asn-Trp-Asn-Thr-Phe-AzaGly-Leu-Arg(Me)-Phe-NH2] (H-[dY]NWNTF[azaGly]L[Arg(Me)]F-NH2)	1	5.5
CNC(=N)NCCC[C@H](NC(=O)[C@H](CC(C)C)NC(=O)NNC(=O)[C@H](Cc1ccccc1)NC(=O)[C@@H](NC(=O)[C@H](CC(N)=O)NC(=O)[C@H](Cc1c[nH]c2ccccc12)NC(=O)[C@@H](CC(N)=O)NC(=O)[C@H](N)Cc1ccc(O)cc1)[C@@H](C)O)C(=O)N[C@@H](Cc1ccccc1)C(N)=O [Compound No. 298, D-Tyr-D-Asn-Trp-Asn-Thr-Phe-AzaGly-Leu-Arg(Me)-Phe-NH2] (H-[dY][dN]WNTF[azaGly]L[Arg(Me)]F-NH2)	5	1.8
CNC(=N)NCCC[C@H](NC(=O)[C@H](CC(C)C)NC(=O)NNC(=O)[C@H](Cc1ccccc1)NC(=O)[C@H](CO)NC(=O)[C@H](CC(N)=O)NC(=O)[C@H](Cc1ccncc1)NC(=O)[C@@H](CC(N)=O)NC(=O)[C@H](N)Cc1ccc(O)cc1)C(=O)N[C@@H](Cc1ccccc1)C(N)=O [Compound No. 303, D-Tyr-D-Asn-Pya(4)-Asn-Ser-Phe-AzaGly-Leu-Arg(Me)-Phe-NH2] (H-[dY][dN][4Pal]NSF[azaGly]L[Arg(Me)]F-NH2)	5	6.9
CNC(=N)NCCC[C@H](NC(=O)[C@H](CC(C)C)NC(=O)CNC[C@H](Cc1ccccc1)NC(=O)[C@H](CO)NC(=O)[C@H](CC(N)=O)NC(=O)[C@H](Cc1c[nH]c2ccccc12)NC(=O)[C@H](CC(N)=O)NC(=O)[C@H](N)Cc1ccc(O)cc1)C(=O)N[C@@H](Cc1ccccc1)C(N)=O [Compound No. 308, D-Tyr-Asn-Trp-Asn-Ser-PheΨ(CH2NH)Gly-Leu-Arg(Me)-Phe-NH2]	2	2.6
Tos-Phe-AzaGly-Leu-Arg(Me)-Trp-NH2 [Compound No. 368]	½	
Trifluoroacetyl-Phe-AzaGly-Leu-Arg(Me)-Trp-NH2 [Compound No. 448]	3	
Z-Phe-AzaGly-Leu-Arg(Me)-Trp-NH2 [Compound No. 367]	⅕	
n-Hexanoyl-Phe-AzaGly-Leu-Arg(Me)-Phe-NH2 [Compound No. 347]	½	
n-Hexanoyl-Phe-AzaGly-Leu-Arg(Me)-Trp-NH2 [Compound No. 366]	⅓	
